Our source for the TGI values is PubChem BioAssay (NCI).

Holding throughout (test): growth of human tumour cells (NCI), 48 h
Assay [1] relates to M19-MEL melanoma.
For assay [2], the system named is NCI/ADR-RES ovarian.
In assay [3] the test system is XF 498 CNS.
The subject of assay [4] is KM20L2 colon.
The subject of assay [5] is HCT-116 colon.
The subject of assay [6] is MCF7 breast.
The test system of assay [7] is SF-268 CNS.
The subject of assay [8] is SNB-78 CNS.
Assay [9] has as its system NCI-H226 lung.
The subject of assay [10] is DLD-1 colon.
Assay [11] concerns DMS 273 small cell lung.
The subject of assay [12] is DMS 114 small cell lung.
Assay [13] deals with SW-620 colon.
The test system of assay [14] is HOP-18 NSCLC.
For assay [15], the system named is DU-145 prostate.
Assay [16] concerns MDA-MB-231 breast.
For assay [17], the system named is PC-3 prostate.
Assay [18] relates to TK-10 renal.
For assay [19], the system named is MDA-MB-435.
For assay [20], the system named is ACHN renal.

Each structure is given as a SMILES string.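 Tested at 5 concentrations; 48 h exposure; 96-well plates; endpoints linearly interpolated, else capped at highest concentration. The concentration for full growth arrest is given as TGI.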

As for `CN(C)C(=O)OCOC(=O)N(C)C`, the TGI in assay [1], in assay [2], in [3], in assay [4], in [5] and in assay [6] was > 100 µM in each case. Also, the TGI in [7], in [8], in [9], in assay [10], in [11] and in assay [12] was > 100 µM throughout. In addition, the TGI in [13] and in [14] was > 100 µM in each case.

As for `COc1ccnc2c1C(=O)c1nc3ccccc3c3ccnc-2c13`, the TGI was found to be 0.147 µM in [2]; 1.03 µM in assay [5]; 0.31 µM in [15]; 0.298 µM in assay [6]; 3.87 µM in assay [16]; 1.81 µM in assay [17]. Besides, the TGI in [18] was determined as 1.13 µM; in [19] it was 1.52 µM; in [20], 0.41 µM.

As to `CCOC(=O)CC1CCN(C(=O)c2ccccc2)C2Cc3c([nH]c4ccccc34)C12C[N+](=O)[O-]` (centres undefined), the TGI in assay [2], in assay [15], in assay [6], in assay [7], in [16] and in [17] was > 100 µM throughout. In addition, the TGI in [18], in assay [19], in assay [20], in [9] and in [13] was > 100 µM throughout.

Turning to `CCOC(=O)c1csc(NC(=O)C(C)N2CCCCC2)n1` (centres undefined), the TGI in assay [2], in assay [15], in assay [6], in [16], in assay [17] and in [18] was > 100 µM throughout. The TGI in [19], in assay [20] and in assay [13] was > 100 µM each time.

As to `OCC1OC(n2cnc3c2NC=NC[C@H]3O)C(O)C1O` (some centres undefined), the TGI in assay [1], in assay [2], in assay [3], in assay [4], in [5] and in assay [6] was > 450 µM throughout. Also, the TGI was > 450 µM in assay [7]; > 450 µM in [8]; > 273 µM in [9]; > 450 µM in assay [10]; > 450 µM in [11]; > 450 µM in [12]. The TGI in assay [13] and in [14] was > 450 µM in each case.

As to `O=c1c(-c2ccccc2)c(SCCCN2CCN(c3cccc(Cl)c3)CC2)n(-c2ccccc2)c(=S)n1-c1ccccc1`, the TGI in assay [2], in [15], in assay [6], in assay [16], in assay [17] and in [18] was > 100 µM each time. Also, the TGI in [19] was 42.4 µM; in assay [20], > 100 µM; in assay [9] it was > 100 µM; in assay [13] it was > 100 µM.

`CC(=O)OCC1OC(Nc2ncc(-c3ccc(C)cc3)s2)C(OC(C)=O)C(OC(C)=O)C1OC(C)=O` (centres undefined): the TGI is > 31.6 µM in assay [1]; 78 µM in assay [2]; > 62.5 µM in assay [5]; 35.8 µM in [6]; > 100 µM in [7]; > 100 µM in assay [8]. Besides, the TGI is 91.4 µM in assay [9]; > 100 µM in [10]; > 100 µM in assay [11]; > 100 µM in [12]; > 100 µM in assay [13]; > 100 µM in assay [14].

With `CCCCN1C=CN2c3nc4cc(C)c(C)cc4n3C(C(=O)OC)=C(C(=O)OC)C12` (centres undefined), the TGI in assay [1], in assay [3], in assay [4], in assay [5], in assay [7] and in assay [8] was > 100 µM each time. Further, the TGI in [18], in [20], in assay [10], in assay [11], in assay [12] and in [13] was > 100 µM throughout. The TGI in assay [14] is > 100 µM.

For `O=C1NC(=O)C(CCO)(c2ccccc2)C(=O)N1`, the TGI in assay [1], in assay [2], in [3], in assay [4], in assay [5] and in assay [6] was > 100 µM each time. For the same compound, the TGI in [7], in [8], in [9], in [10], in assay [11] and in [12] was > 100 µM in each case. In addition, the TGI in [13] and in assay [14] was > 100 µM each time.

As to `C=CCn1c(=O)n(CC=C)c(=O)n(CC=C)c1=O`, the TGI in assay [1], in [4], in assay [5], in assay [7], in assay [8] and in assay [18] was > 100 µM throughout. The TGI in [20], in [10], in assay [11], in assay [12], in assay [13] and in [14] was > 100 µM throughout.

With `COC(=O)C1OC(Oc2cc(O)c3c(=O)cc(-c4ccc(O)cc4)oc3c2)C(O)C(O)C1O` (centres undefined), the TGI in assay [1], in [2], in assay [3], in assay [4], in assay [5] and in [6] was > 100 µM in each case. Further, the TGI in assay [7], in assay [8], in [9], in assay [10], in assay [11] and in assay [12] was > 100 µM each time. The TGI in assay [13] and in [14] was > 100 µM throughout.

Consider `COC(=O)c1ccc(/C=C2\N=C(C)OC2=O)cc1`, for which the TGI in assay [1], in assay [3], in [4], in assay [5], in [7] and in assay [18] was > 100 µM throughout. Also, the TGI in assay [20], in assay [9], in assay [10], in assay [11], in assay [12] and in assay [13] was > 100 µM in each case. The TGI in [14] is > 100 µM.

For the compound `CN(C)C(=O)NCCN1CCCCCc2ccccc21`, the TGI in assay [2], in assay [5], in assay [15], in [6], in assay [7] and in assay [16] was > 100 µM each time. Further, the TGI in [17], in assay [18], in assay [19], in assay [20], in assay [9] and in [13] was > 100 µM in each case.

For the compound `O=C(CC(c1ccccc1)N1CCCCC1)c1ccccc1` (centres undefined), the TGI in [2] turned out to be 60.8 µM; in assay [5], 19.9 µM; in [15], 32.3 µM; in assay [6], 15.4 µM; in assay [7], 33.4 µM; in assay [16], 34.6 µM. Also, the TGI in assay [17] amounted to 29.4 µM; in [18], 27.3 µM; in assay [19], 27.4 µM; in assay [20], 30.7 µM; in [9], 37.4 µM; in assay [13] it was 18.7 µM.
